Test results reported in US8912163B2, “Compositions for the treatment or prophylaxis of viral infections” (Katholieke Universiteit Leuven, priority 2007, dated 2014).
In brackets after ≈: the same amount, converted by molar mass. Where two headings read alike, the source gives them in different places. Each block holds one molecule with its values, some of them ahead of it.

Columns and labels:
[1] = Water-solubility by HPLC; assay type: physicochemical; conditions: deionised water, room temperature; for solubility: thermodynamic from solid
Protocol: HPLC was carried out on a Waters 484 System using Novapack C18 reverse phase column. Flow rate: 1 mL/min. Detection: UV 254 nm. […] The samples were centrifuged at 14.000 rpm in an Eppendorf micro-centrifuge for 1.5 min at room temperature. An aliquot of the clear supernatant was removed and diluted to a concentration within the range of a five-point standard curve. Water-solubility was calculated from each peak area of the above solution by HPLC compared with the sample dissolved in acetonitrile, the concentration of which is already known.

[2] = test system: VZV TK+ OKA; assay: VZV plaque reduction in HEL cells, TK+ strain OKA; assay type: cell-based, Varicella Zoster virus
Protocol: (§1) VZV-drug susceptibility assays were performed on confluent HEL cells in 96-well microtiter plates. Monolayers were infected with 20 PFU of cell-associated virus per well. For each assay, virus controls (infected-untreated cells) were included. After a 2-hour incubation period, the virus inoculum was removed and the media replaced by the different dilutions (in duplicate) of the tested molecules. Serial dilutions of test compounds were incubated with the infected monolayers for 5 days. After the 5-day incubation period, the cells were fixed and stained with Giemsa, and the level of virus-induced cytopathic effect was determined by counting the number of plaques for each dilution.

[3] = test system: VZV; assay: Anti-VZV activity in VZV-infected HEL cell cultures (general statements); assay type: cell-based, Varicella Zoster virus; conditions: HEL cells
Protocol: The objective of this study was to compare the antiviral activity of Compounds 1, 3, 5, 7 and 9 in HEL cells inoculated with VZV strains. Antiviral activity was assessed as the ability of Compounds 1, 3, 5, 7 and 9 to reduce viral plaque formation after incubation periods of 5 days as compared to untreated control cultures.
as §1

[4] = test system: VZV TK+ YS; assay: VZV plaque reduction in HEL cells, TK+ strain YS; assay type: cell-based, Varicella Zoster virus; conditions: 5 days
Protocol: as §1

[5] = test system: VZV TK− 07/1; assay: VZV plaque reduction in HEL cells, TK- strain 07/1; assay type: cell-based, Varicella Zoster virus
Protocol: as §1

[6] = test system: HEL cells; assay: in vitro; assay type: cell-based
[7] = in vitro; assay type: cell-based; conditions: human
[8] = biological target: purified CD26 (Homo sapiens, UniProt P27487); assay: Conversion (substrate activity) by purified CD26; assay type: biochemical; conditions: purified CD26 (1.5 mU in PBS), 37° C.
Protocol: (§2) A variety of test compounds have been evaluated for their substrate activity against purified CD26, human serum (HS), and bovine serum (BS) in Eppendorf tubes. The 400 μL reaction mixture contained 50 μM of test compound in PBS (containing 0.1% DMSO). The reaction was started by the addition of purified CD26 (1.5 mU) or 20% of HS (in PBS) or BS (in PBS) at 37° C. At different time points, 100 μL was withdrawn from the reaction mixture, added to 200 μL methanol, and put on ice for ˜10 min. Then, the mixture was centrifuged at 13,000 rpm for 5 min at 4° C. and 250 μL of supernatant was analyzed by HPLC on a reverse phase RP-8 column, using following gradients: […]
(§3) Gradient A (Buffer A: 50 mM NaH2PO4+5 mM heptane-sulfonic acid pH 3.2; buffer B: acetonitrile): 2 min 98% A+2% B; 6 min linear gradient to 80% A+20% B; 2 min linear gradient to 75% A+25% B; 2 min linear gradient to 65% A+35% B; 18 min linear gradient to 50% A+50% B; 5 min 50% A+50% B; 5 min linear gradient to 98% A+2% B; 5 min equilibration at 98% A+2% B.
(§4) Gradient B: 2 min 98% A+2% B; 6 min linear gradient to 80% A+20% B; 2 min linear gradient to 75% A+25% B; 2 min linear gradient to 65% A+35% B; 8 min linear gradient to 50% A+50% B; 10 min 50% A+50% B; 10 min linear gradient to 20% A+80% B; 5 min 20% A+80% B; 15 min linear gradient to 98% A+2% B; 5 min 98% A+2% B.

[9] = Conversion in human serum (10%); assay type: in vitro ADME; conditions: Human serum 10% in PBS, 37° C.
Protocol: as §2, with “The reaction was started by the addition of purified CD26 (1.5 mU) or 20% of HS (in PBS) or BS (in PBS) at 37° C.” left out
as §3, §4

[10] = Conversion in bovine serum (10%); assay type: in vitro ADME; conditions: Bovine serum 10% in PBS, 37° C.
Protocol: as §2, with “The reaction was started by the addition of purified CD26 (1.5 mU) or 20% of HS (in PBS) or BS (in PBS) at 37° C.” left out
as §3, §4

[11] = Oral bioavailability in mice: Compound 1 in plasma after single oral gavage; assay type: in vivo; conditions: for Compound 1 in plasma (area under the curve (HPLC)): dose equivalent to 25 mg/kg of Compound 1, relative peak area
Source text: The results of this study are shown in Table 1 below and in FIG. 1 of the accompanying drawings.

[12] = overnight, means of three determinations
[13] = Human alphaherpesvirus 3, HEL, 120 h, read-out: EC50 VZV TK+ OKA, Table 3b, plaque formation, 5 days
[14] = Human alphaherpesvirus 3, HEL, 120 h, Table 3b, plaque formation
[15] = Human alphaherpesvirus 3, HEL, 120 h, read-out: EC50 VZV TK− 07/1, Table 3b, plaque formation, 5 days

Sequence of purified CD26 (P27487 whole entry, species assumed): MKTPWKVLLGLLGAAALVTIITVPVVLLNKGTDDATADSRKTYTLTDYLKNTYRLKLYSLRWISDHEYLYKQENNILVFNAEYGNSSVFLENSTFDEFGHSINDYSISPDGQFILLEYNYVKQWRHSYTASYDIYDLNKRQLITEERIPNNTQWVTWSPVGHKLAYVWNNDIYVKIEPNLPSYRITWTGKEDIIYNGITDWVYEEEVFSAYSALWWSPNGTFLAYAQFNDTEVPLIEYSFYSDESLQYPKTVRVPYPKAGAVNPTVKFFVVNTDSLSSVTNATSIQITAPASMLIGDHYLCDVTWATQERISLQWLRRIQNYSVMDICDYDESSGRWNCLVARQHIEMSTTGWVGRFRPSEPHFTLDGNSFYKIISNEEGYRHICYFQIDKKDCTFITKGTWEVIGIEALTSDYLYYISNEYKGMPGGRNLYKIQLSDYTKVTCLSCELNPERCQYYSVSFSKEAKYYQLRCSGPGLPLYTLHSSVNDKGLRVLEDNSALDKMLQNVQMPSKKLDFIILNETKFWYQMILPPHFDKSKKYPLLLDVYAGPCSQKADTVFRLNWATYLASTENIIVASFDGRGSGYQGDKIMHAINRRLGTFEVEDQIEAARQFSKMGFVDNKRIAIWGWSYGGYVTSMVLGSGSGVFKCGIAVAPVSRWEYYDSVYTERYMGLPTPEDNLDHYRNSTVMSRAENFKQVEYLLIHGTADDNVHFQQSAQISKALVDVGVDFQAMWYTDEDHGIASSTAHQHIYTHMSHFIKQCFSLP

Solubility in water [1, 12]: 22 ± 7 µg/mL (≈ 55.2 µM)
solubility ([1]; read-out: water-solubility): 22 µg/mL (≈ 55.2 µM)
SMILES: CCCCCc1ccc(-c2cc3cn([C@H]4CC(O)[C@@H](CO)O4)c(=O)nc3o2)cc1 (stereo partly drawn) [Compound 1, reference compound]

SMILES: CCCCCc1ccc(-c2cc3cn([C@H]4CC(OC(=O)C(N)C(C)C)[C@@H](CO)O4)c(=O)nc3o2)cc1 (stereo partly drawn) [Compound 3, 3-[2′-Deoxy-3′-O-valyl-β-D-ribofuranosyl]-6-(p-pentylphenyl)-2,3-dihydrofuro[2,3-d]pyrimidin-2-one, reference compound]
EC50 [2, 13]: 7 nM
antiviral activity in VZV-infected HEL cell cultures (in words) [3]: active
EC50 [4, 14]: 4 nM
antiviral activity against VZV/TK− (in words) [5]: lose antiviral activity
EC50 [5, 15]: > 5000 nM
cytotoxic or cytostatic (in words) [6]: Neither of them is cytotoxic or cytostatic
MCC ([6]; human): 20 µM
CC50 [7]: > 5000 nM

SMILES: CCCCCc1ccc(-c2cc3cn([C@H]4CC(O)[C@@H](COC(=O)C(N)C(C)C)O4)c(=O)nc3o2)cc1 (stereo partly drawn) [Compound 5, reference compound]
solubility ([1]; overnight, means of three determinations, read-out: Solubility in water): 211 ± 44 µg/mL (≈ 424 µM)
EC50 ([2]; Human alphaherpesvirus 3, HEL, 120 h, read-out: EC50 VZV TK+ OKA, Table 3, plaque formation, 5 days): 14 nM
antiviral activity in VZV-infected HEL cell cultures (in words) [3]: active
EC50 ([4]; Human alphaherpesvirus 3, HEL, 120 h, Table 3, plaque formation): 30 nM
antiviral activity against VZV/TK− (in words) [5]: lose antiviral activity
EC50 ([5]; Human alphaherpesvirus 3, HEL, 120 h, read-out: EC50 VZV TK− 07/1, Table 3, plaque formation, 5 days): > 1000 nM
cytotoxic or cytostatic (in words) [6]: Neither of them is cytotoxic or cytostatic
MCC ([6]; human): >1 µM
CC50 [7]: > 500 nM

SMILES: CCCCCc1ccc(-c2cc3cn([C@H]4C[C@H](O)[C@@H](COC(=O)[C@@H](NC(=O)[C@@H]5CCCN5C(=O)[C@@H](N)C(C)C)C(C)C)O4)c(=O)nc3o2)cc1 [Compound 7]
Formation of hydrolysis products (%): Compound 1 ([8]; 0 hr): 0%
Formation of hydrolysis products (%): Compound 5 ([8]; 0 hr): 0%
Formation of hydrolysis products (%): Compound 7 ([8]; 0 hr): 100%
Formation of hydrolysis products (%): Compound 1 ([8]; 2 hr): 49.4%
Formation of hydrolysis products (%): Compound 5 ([8]; 2 hr): 50.6%
Formation of hydrolysis products (%): Compound 7 ([8]; 2 hr): 0%
Formation of hydrolysis products (%): Compound 1 ([8]; 6 hr): 62.9%
Formation of hydrolysis products (%): Compound 5 ([8]; 6 hr): 37.1%
Formation of hydrolysis products (%): Compound 7 ([8]; 6 hr): 0%
Formation of hydrolysis products (%): Compound 1 ([8]; 20 hr): 75.5%
Formation of hydrolysis products (%): Compound 5 ([8]; 20 hr): 24.5%
Formation of hydrolysis products (%): Compound 7 ([8]; 20 hr): 0%
water-solubility [1]: 1270 µg/mL
water-solubility relative to Compound 1 [1]: more than 57 fold
Solubility in water [1, 12]: 1270 ± 50 µg/mL (≈ 1830 µM)
EC50 ([2]; Table 3, plaque formation, 5 days, read-out: EC50 VZV TK+ OKA): 12 nM
antiviral activity in VZV-infected HEL cell cultures (in words) [3]: found to be active
EC50 ([4]; Table 3, plaque formation): 10 nM
Formation of hydrolysis products (%): Compound 1 ([9]; 0 hr): 0%
Formation of hydrolysis products (%): Compound 5 ([9]; 0 hr): 0%
Formation of hydrolysis products (%): Compound 7 ([9]; 0 hr): 100%
Formation of hydrolysis products (%): Compound 1 ([9]; 1 hr): 57.6%
Formation of hydrolysis products (%): Compound 5 ([9]; 1 hr): 11.4%
Formation of hydrolysis products (%): Compound 7 ([9]; 1 hr): 31%
Formation of hydrolysis products (%): Compound 1 ([9]; 4 hr): 73.4%
Formation of hydrolysis products (%): Compound 5 ([9]; 4 hr): 21.5%
Formation of hydrolysis products (%): Compound 7 ([9]; 4 hr): 5.0%
Formation of hydrolysis products (%): Compound 1 ([9]; 20 hr): 88.5%
Formation of hydrolysis products (%): Compound 5 ([9]; 20 hr): 9.7%
Formation of hydrolysis products (%): Compound 7 ([9]; 20 hr): 1.8%
antiviral activity against VZV/TK− (in words) [5]: lose antiviral activity
EC50 ([5]; Table 3, plaque formation, 5 days, read-out: EC50 VZV TK− 07/1): > 1000 nM
Formation of hydrolysis products (%): Compound 1 ([10]; 0 hr): 0%
Formation of hydrolysis products (%): Compound 5 ([10]; 0 hr): 0%
Formation of hydrolysis products (%): Compound 7 ([10]; 0 hr): 100%
Formation of hydrolysis products (%): Compound 1 ([10]; 1 hr): 20.3%
Formation of hydrolysis products (%): Compound 5 ([10]; 1 hr): 19.9%
Formation of hydrolysis products (%): Compound 7 ([10]; 1 hr): 59.8%
Formation of hydrolysis products (%): Compound 1 ([10]; 4 hr): 44.8%
Formation of hydrolysis products (%): Compound 5 ([10]; 4 hr): 34.7%
Formation of hydrolysis products (%): Compound 7 ([10]; 4 hr): 20.4%
Formation of hydrolysis products (%): Compound 1 ([10]; 20 hr): 74.4%
Formation of hydrolysis products (%): Compound 5 ([10]; 20 hr): 21%
Formation of hydrolysis products (%): Compound 7 ([10]; 20 hr): 3.3%
CC50 [6]: > 500 nM
MCC [6]: >1 µM
cytotoxic or cytostatic (in words) [6]: Neither of them is cytotoxic or cytostatic
Compound 1 in plasma (area under the curve (HPLC)) ([11]; 15 min after oral gavage): 32
Compound 1 in plasma (area under the curve (HPLC)) ([11]; 30 min after oral gavage): 52
Compound 1 in plasma (area under the curve (HPLC)) ([11]; 45 min after oral gavage): 87
Compound 1 in plasma (area under the curve (HPLC)) ([11]; 60 min after oral gavage): 44
Compound 1 in plasma (area under the curve (HPLC)) ([11]; 120 min after oral gavage): 14
Compound 1 in plasma (area under the curve (HPLC)) ([11]; 180 min after oral gavage): 6.2
increase of the oral bioavailability of Compound 1 (as estimated by the AUC values) ([11]; oral gavage, versus dosing Compound 1): approximately 12 fold

SMILES: CCCCCc1ccc(-c2cc3cn(C4CC(OC(=O)C(NC(=O)C5CCCN5C(=O)C(N)C(C)C)C(C)C)C(CO)O4)c(=O)nc3o2)cc1 [Compound 9, 3-[2′-Deoxy-3′-O-(valyl-prolyl-valyl)-β-D-ribofuranosyl]-6-(p-pentylphenyl)-2,3-dihydrofuro[2,3-d]pyrimidin-2-one]
EC50 [2, 13]: 17 nM
antiviral activity in VZV-infected HEL cell cultures (in words) [3]: found to be active
EC50 [4, 14]: 16 nM
antiviral activity against VZV/TK− (in words) [5]: lose antiviral activity
EC50 [5, 15]: > 5000 nM
cytotoxic or cytostatic (in words) [6]: Neither of them is cytotoxic or cytostatic
MCC ([6]; human): 20 µM
CC50 [7]: > 5000 nM
